Measured values taken from patent US20230048576A1, “COMPOUNDS FOR THE TREATMENT OF NEUROPATHIC PAIN” (City of Hope, priority 2019, published 2023).
In brackets after ≈: the same amount, converted by molar mass. Several values for one entry are separate records, joined by “and”; a condition that tells them apart may be missing. Equal entries are not always repeated. Entries after “also recorded” stand apart in the source; their conditions may differ. Marks after values point to notes of the source that are not given here.

Tests used:
[1] = test system: Taxol-induced neuropathic pain; assay: Von Frey test (mechanical allodynia) in Taxol induced model of neuropathic pain; type: in vivo, rat
Procedure: Neuropathic pain was induced by intraperitoneal administration of Taxol at a dose level of 6 mg/kg on study days 0-6 and 12 mg/kg on study days 7-12. Following injection of Taxol animals experienced pain as was assessed using the von Frey test. The development of neuropathic pain was confirmed by measuring mechanical allodynia (Von Frey test) on study day 13 (for inclusion) and on study day 14 (1 hour and 2 hour post dosing) and 24 hour post first dosing.
All data are presented as means±SEM. Each treatment group was compared to the Vehicle group using Two way ANOVA (for VF) followed by Tukey post-test (GraphPad). Vehicle group is compared to naïve group using T-test. A p value<0.05 is considered to represent a significant difference.
The response to tactile allodynia was evaluated using the Von Frey apparatus (Touch Test®). The rat was placed in an enclosure and positioned on a metal mesh surface, but allowed to move freely. A set of dull monofilaments provide an increasing force was applied on the animal plantar surface of the paw. The lowest force requires for animal paw withdrawal was recorded. Low force values recorded in this test indicate a painful state.

[2] = Solubility of purified LR-90 in different vehicles; type: physicochemical
Procedure: In order to develop a vehicle formulation for LR-90 for use in humans, 15 different vehicles were tested to measure the solubility of the purified LR-90 (Table 6).

[3] = Stability in acidic environment (simulated gastric fluid test), precipitation under polarized light microscope; type: physicochemical
Procedure: To test the stability in the acidic environment (simulated gastric fluid test) of 5 and 10 mg/ml of LR-90 in 20% HPβCD in pH 8.0 buffer, the two concentrations were added into the equal volume of pH 1.2 buffer, mixed completely, and then observed under a polarized light microscope.

In the case of `CC(C)(Oc1ccc(NC(=O)Nc2ccc(Cc3ccc(NC(=O)Nc4ccc(OC(C)(C)C(=O)O)cc4)c(Cl)c3)cc2Cl)cc1)C(=O)O` [LR-90, methylene bis[4,4′-(2-chlorophenylureidophenoxyisobutyric acid)]], the “effect on the sensitivity of the treated animals to mechanical stimulation” value ([1]; 25 mg/kg) is reported as “No significant effect”, the “mean Von Frey force required for withdrawal” value (from here on “mean Von Frey force required”) ([1]; 25 mg/kg PO, Group 6, Baseline) is reported as 60.00 g and the “mean Von Frey force required” value ([1]; 25 mg/kg PO, Group 6, Day 13 pre dosing) is reported as 9.81 g. The “mean Von Frey force required” value ([1]; 25 mg/kg PO, Group 6, Day 14 1 hour post dosing) was 21.88 g, the “mean Von Frey force required” value ([1]; 25 mg/kg PO, Group 6, Day 14 2 hours post dosing) was 17.31 g and the “mean Von Frey force required” value ([1]; 25 mg/kg PO, Group 6, Day 15 24 hours post dosing) was 14.13 g. The “effect on the sensitivity of the treated animals to mechanical stimulation” value ([1]; 50 mg/kg) was “No significant effect”, the “mean Von Frey force required” value ([1]; 50 mg/kg PO, Group 5, Baseline) was 60.00 g and the “mean Von Frey force required” value ([1]; 50 mg/kg PO, Group 5, Day 13 pre dosing) was 9.81 g. The “mean Von Frey force required” value ([1]; 50 mg/kg PO, Group 5, Day 14 1 hour post dosing) was 17.38 g, the “mean Von Frey force required” value ([1]; 50 mg/kg PO, Group 5, Day 14 2 hours post dosing) was 22.13 g and the “mean Von Frey force required” value ([1]; 50 mg/kg PO, Group 5, Day 15 24 hours post dosing) was 16.75 g. For the same compound, the “mean Von Frey force required” value ([1]; 100 mg/kg PO, Group 4, Baseline) was 57.88 g, the “mean Von Frey force required” value ([1]; 100 mg/kg PO, Group 4, Day 13 pre dosing) was 10.06 g and the “mean Von Frey force required” value ([1]; 100 mg/kg PO, Group 4, Day 14 1 hour post dosing) was 34.69**** g. The “mean Von Frey force required” value ([1]; 100 mg/kg PO, Group 4, Day 14 2 hours post dosing) was 32.56±7.56 g and 32.56*** g, the “mean Von Frey force required” value ([1]; 100 mg/kg PO, Group 4, Day 15 24 hours post dosing) was 26.25 g and the “effect on neuropathic pain compared to the vehicle group (Von Frey test)” value ([1]; 100 mg/kg, Group 4, 1 hour and 2 hour post dosing on study day 14) was “statistically significantly reduced the neuropathic pain; also recorded: significantly effective in reducing neuropathic pain”. For the same compound, the Solubility ([2]; Media: 10% Kolliphor RH40 in water (W/V)) was 1220 µg/mL (≈ 1.72 mM), the Solubility ([2]; Media: 10% Solutol in water (W/V)) was 1250 µg/mL (≈ 1.76 mM) and the Solubility ([2]; Media: 10% TPGS in water (W/V)) was 560 µg/mL (≈ 0.789 mM). The Solubility ([2]; Media: 20% Labsol tn water (W/V)) was 1650 µg/mL (≈ 2.33 mM), the Solubility ([2]; Media: 30% Captisol in water (W/V)) was 1710 µg/mL (≈ 2.41 mM) and the Solubility ([2]; Media: 40% HPβCD in water (W/V)) was 3660 µg/mL (≈ 5.16 mM). For the same compound, the Solubility ([2]; Media: DMA) was over 531000 µg/mL, the Solubility ([2]; Media: DMSO) was over 258500 µg/mL and the Solubility ([2]; Media: EtOH) was over 4600 µg/mL. The Solubility ([2]; Media: PEG300) was over 16790 µg/mL, the Solubility ([2]; Media: PEG400) was over 10100 µg/mL and the Solubility ([2]; Media: PG) was over 2270 µg/mL. The Solubility ([2]; Media: pH 6.8) was 1670 µg/mL (≈ 2.35 mM), the Solubility ([2]; Media: pH 8) was 7120 µg/mL (≈ 10 mM) and the “precipitation after mixing with equal volume of pH 1.2 buffer” value ([3]; 5 mg/ml LR-90 in 20% HPβCD in pH 8.0 buffer, after an hour) was “no precipitation”. For the same compound, the “precipitation after mixing with equal volume of pH 1.2 buffer” value ([3]; 10 mg/ml LR-90 in 20% HPβCD in pH 8.0 buffer, about 60 min) was “Very little precipitation”.
